Laboratory results taken from the NIST ThermoML archive (doi:10.1016/j.jct.2007.09.004).

Tests used:
[1] = relative permittivity at zero frequency (dimensionless); xn = mol fraction of the nth substance listed; settings: 101 kPa, Liquid, Parallel plate capacitor
[2] = xn = mol fraction of the nth substance listed; settings: 101 kPa, Liquid

CCCOCCO [2-propoxyethanol] + OCCOCCOCCO
Settings | mass density, 293.15 K [kg/m3] | mass density, 298.15 K [kg/m3] | mass density, 303.15 K [kg/m3] | relative permittivity at zero frequency, 293.15 K | relative permittivity at zero frequency, 298.15 K | relative permittivity at zero frequency, 303.15 K
[1], x1 = 0.0501 | – | – | – | 23.33 | 22.71 | 22.07
[1], x1 = 0.1003 | – | – | – | 22.93 | 22.33 | 21.68
[1], x1 = 0.2005 | – | – | – | 22.09 | 21.51 | 20.89
[1], x1 = 0.2999 | – | – | – | 21.25 | 20.64 | 20.02
[1], x1 = 0.4001 | – | – | – | 20.35 | 19.66 | 19.06
[1], x1 = 0.5 | – | – | – | 19.33 | 18.59 | 18.02
[1], x1 = 0.6002 | – | – | – | 18.11 | 17.41 | 16.88
[1], x1 = 0.7002 | – | – | – | 16.71 | 16.13 | 15.63
[1], x1 = 0.8 | – | – | – | 15.16 | 14.73 | 14.28
[1], x1 = 0.9 | – | – | – | 13.53 | 13.18 | 12.78
[1], x1 = 0.95 | – | – | – | 12.69 | 12.36 | 11.99
[1], x1 = 1 | – | – | – | 11.76 | 11.5 | 11.19
[2], x1 = 0.0413 | 1116.67 | 1112.44 | 1108.49 | – | – | –
[2], x1 = 0.1061 | 1105.37 | 1100.97 | 1096.78 | – | – | –
[2], x1 = 0.1986 | 1088.75 | 1084.08 | 1079.65 | – | – | –
[2], x1 = 0.2999 | 1069.72 | 1064.9 | 1060.23 | – | – | –
[2], x1 = 0.3999 | 1050.01 | 1045.15 | 1040.34 | – | – | –
[2], x1 = 0.5 | 1029.46 | 1024.57 | 1019.67 | – | – | –
[2], x1 = 0.6 | 1008.1 | 1003.16 | 998.18 | – | – | –
[2], x1 = 0.7002 | 985.9 | 980.84 | 975.77 | – | – | –
[2], x1 = 0.8 | 962.85 | 957.69 | 952.55 | – | – | –
[2], x1 = 0.9 | 938.69 | 933.46 | 928.29 | – | – | –
[2], x1 = 0.95 | 926.18 | 920.99 | 915.81 | – | – | –
[2], x1 = 1 | 913.31 | 908.19 | 903.11 | – | – | –
